Entries after “also recorded” stand apart in the source; their conditions may differ. Where a SMILES comes first, the peptide text is derived from it. The star is where a group is joined. Cbz = O=C(OCc1ccccc1)*; Boc = CC(C)(C)OC(=O)*; OtBu = CC(C)(C)O* A value given as a limit tells only on which side of the number the result lay.

One data set has as its system Fibroblasts. As to the kind of experiment: Viability of fibroblasts (control). Format: cell-based. Conditions: Fibroblast, identical conditions (72 h), read-out: concentration for 50% reduction of the viability.
The subject of data set [1] is Human melanoma cells (MeWo). The experiment in a line: Viability of human melanoma cells (MeWo), crystal violet-staining. Format: cell-based. Conditions: Homo sapiens, 72 h, read-out: concentration at rate of survival of 50% of the cells. As to the method: (§1) A, Human melanoma cells (MeWo) were treated with increasing concentrations of the compounds 15 or 3 (MG132) for 72 hours. The viability of the cells after the treatment with compound 15 (-♦-) and with MG132 (-□-) was detected by a crystal-violet-staining. B and C, MeWo cells were co-cultivated with the compounds 15 and 3 (MG132) for 24 hours. The cells were subsequently fixed in 70% ethanol, and treated with RNAse A. The DNA was stained with propidium iodide (5 μg/ml), and analysed by means of FACS (FACS Calibur flow cytometer; Beckton Dickinson). The statistical significance was detected by the chi-square-test. The relative distribution of the cells that were present in the G1-(black), in the S-(white) or in the G2 phase (hatched) of the cellular cycle is shown for both compounds as examined (15 in B and MG132 in C).
Human melanoma cells (MeWo) were incubated for 72 h with different concentrations of the inhibitor 15 and 28, and the viability of the cells was determined by means of crystal violet-staining (FIG. 8).

In data set [2] the test system is Human melanoma cells (MeWo). As to the kind of experiment: Cell cycle arrest in MeWo cells, propidium iodide FACS. Format: cell-based. As to conditions: 24 hours. As to the method: as §1
Human melanoma cells (MeWo) were with the compounds 15 and 3 (MG132) for 24 hours co-cultivated. The cells were washed with PBS, in 70% ethanol fixed and subsequently treated with RNAse A. The DNA was stained with propidium iodide (5 μg/ml) and analysed by means of flow-cytometry (FACS Calibur flow cytometer; Beckton Dickinson). The relative dispersion of the cells that were present in different phases of the cell cycle, could thus be detected. […] The statistical significance was detected by the Chi-square test.

The target in data set [3] is T1, 20S proteasome β2 trypsin-like activity (VGR-MCA) (Homo sapiens, UniProt P49720+Q99436).
T1 construct: Proteasomes were isolated from red blood cells; from tissue; host or cells: red blood cells
As to the kind of experiment: Protease assay, trypsin-like activity of isolated 20S proteasomes. Conditions: isolated 20S proteasome; VGR-MCA 50 μM; 15 min pre-incubation; read-out: IC50 β2 Trypsin-like (R). In kind it is biochemical. As to the method:
(§2) Proteasomes were isolated from red blood cells. Cells were lysed with DTT (1 mM), and the stroma-free supernatant was loaded on DEAE-sepharose (Toyopearls). Proteasome was eluted with an NaCl-gradient in TEAD (20 mM TrisCl pH 7.4, 1 mM EDTA, 1 mM azide, 1 mM DTT) of 100 to 300 mM NaCl. Proteasome was concentrated using ammonium sulfate-precipitation (between 40 and 70% saturation) and was separated in a 10-40% sucrose-gradient through centrifugation at 40.000 rpm for 16 hours (SW40; L7, Beckman & Coulter). Finally, the proteasomes were purified on a MonoQ-column and eluted with an NaCl-gradient at about 280 mM NaCl. The fractions containing purified proteasome were dialysed against 50 mM NaCl in TEAD and stored on ice. The purity was determined using SDS-PAGE.
(§3) Suc-LLVY-AMC, Z-VGR-AMC and LLE-AMC (BACHEM, Calbiochem) was used, in order to determine the chymotrypsin-like, trypsin-like or caspase-like (post-acidic)-activities of the proteasome. Substrate was incubated with proteasome at 37° C. in assay-buffer (20 mM Tris/Cl, pH 7.2, 1 mM EDTA, 1 mM DTT) for one hour. 100 ng proteasome was pre-incubated with 0.01-10 μM of the inhibitor for […]. The reaction was started by the addition of substrate (50 μM). The AMC as released was detected using fluorescence emission at 460 nm (excitation at 390 nm) using a TECAN-fluorimeter. The activity was calculated in fluorescence-units. The inhibition is depicted by IC50-values.
(§4) The effects thereof were compared with the one of the commonly used proteasomal inhibitor 3 (MG132). The chymotrypsin-like (Suc-LLVY-AMC), the trypsin-like (Bz-VGR-AMC), and the caspase-like (Z-LLE-AMC)-activities of 20S proteasomes were determined following incubation for one hour at 37° C.
(§5) The IC50-values form the inhibition of the proteasome were calculated at increasing concentrations of the inhibitor. The samples were pre-incubated for 15 min in ice. The assay was started through the addition of 50 μM of one of the following fluorogenic peptide substrates:
(§6) The release of MCA was determined at 460 nm emission (excitation 390 nm). The IC50-values as calculated for MG132 served as controls.

For data set [4], the target named is T2, 20S proteasome β1 caspase-like activity (LLE-MCA) (Homo sapiens, UniProt P28072+Q99436).
T2 construct: Proteasomes were isolated from red blood cells; from tissue; host or cells: red blood cells
As to the kind of experiment: Protease assay, caspase-like activity of isolated 20S proteasomes. In kind it is biochemical. Conditions: isolated 20S proteasome; LLE-MCA 50 μM; 15 min pre-incubation; read-out: IC50 β1 Caspase-like (E). As to the method:
as §2, §3, §4, §5, §6

For data set [5], the target named is T3, proteasomal activity in HeLa-cells (Homo sapiens, UniProt P20618+P28074).
T3 construct: endogenous in cells; host or cells: HeLa
The experiment in a line: Intracellular inhibition of proteasomes in cultivated HeLa-cells. In kind it is cell-based. Conditions: for reduction of the specific proteasomal activity in cells: HeLa cells, 1 μM. As to the method:
A, HeLa-cells were cultivated were 24 hours in the presence of the inhibitor. The protein concentration was determined in accordance with the cellular lysis according to Bradford in order to normalise the proteasomal activities to the different amounts of cells. Subsequently Complete (Roche) was added to all lysates, and the proteasomal activity was determined through the hydrolysis of Suc-LLVY-AMC. B, HeLa-cells was incubated with 1 μM of compound 15 for 2, 4, 6 and 24 hours. Cells were lysed, and proteins were separated through SDS-PAGE on a 10% gel, blotted to a PVDF-membrane. The accumulation of the poly-ubiquitinylated proteins was detected in a Western blot by an anti-ubiquitine-antibody (DAKO). C, HeLa-Cells were treated with increasing concentrations of the inhibitor 15, 25, 26, 27, and 28 for 24 hours (lane 1: without inhibitor; lane 2: 10 nM; lane 3: 100 nM and lane 4: 1 μM of the given inhibitor). Cells were lysed, proteins were separated on 15% gels, and the accumulation of the poly-ubiquitinylated proteins was controlled through Western blot.
HeLa-Cells were cultivated in RPMI, supplemented with 10% FCS and penicillin/streptomycin, at 5% CO2. Inhibitors were administered from 100×-stock solutions (in DMSO) at the final concentrations as indicated, and incubated with the cells for at least 20 hours.
Cultivated cells (HeLa) were harvested lysed and with 0.1% NP40 in TEAD in the presence of the commercially available protease-inhibitor-mixture Complete (Roche). The proteasomal activity was measured in 10 μl of the lysate using Suc-LLVY-AMC as a substrate. The protein content was quantified by means of Bradford (Protein assay; BioRad).
An application on cell cultures or animals requires that the concentrations of the inhibitors are chose as low as required. The specific proteasomal activity was reduced to a value of below 50% in cells that were treated with 1 μM of the compounds 15, 22, 25, 26, or 28, respectively (FIG. 6A).

A further data set has as its system T4, 20S proteasome.
T4 construct: Proteasomes were isolated from red blood cells; from tissue; host or cells: red blood cells
The experiment in a line: Inhibition of the different proteasomal activities, summary statements. As to conditions: isolated proteasomes, specific substrates. Format: biochemical. As for the experimental part: The specific inhibition of a single catalytic site is of specific interest for the development of drugs. Thus, the inhibition of the different proteasomal activities of the proteasome was analysed (see also example 6). The different cleavage-preferences of the proteasome were determined by the specific substrate for the hydrophobic (chymotrypsin-like), the trypsine-like and the caspase-like activities of isolated proteasomes.
as §3, §4

Data set [6] concerns the target T5, 20S proteasome β5 chymotrypsin-like activity (GLL-MCA) (Homo sapiens, UniProt P20618+P28074).
T5 construct: Proteasomes were isolated from red blood cells; from tissue; host or cells: red blood cells
The experiment in a line: Protease assay, chymotrypsin-like activity of isolated 20S proteasomes (GLL substrate). Format: biochemical. Conditions: isolated 20S proteasome; GLL-MCA 50 μM; 15 min pre-incubation; read-out: IC50 β5 Chym.-like (L). As for the experimental part:
as §2, §3, §5, §6

For data set [7], the target named is T6, 20S proteasome β5 chymotrypsin-like activity (Suc-LLVY-AMC) (Homo sapiens, UniProt P20618+P28074).
T6 construct: Proteasomes were isolated from red blood cells; from tissue; host or cells: red blood cells
As to the kind of experiment: Protease assay, chymotrypsin-like activity of isolated 20S proteasomes (LLVY substrate). Format: biochemical. Conditions: isolated 20S proteasome; LLVY-MCA 50 μM; 15 min pre-incubation; read-out: IC50 β5 Chymotrypsin-like (Y). As for the experimental part: as §2, §3
The chymotrypsin-like (Suc-LLVY-AMC), the trypsin-like (Bz-VGR-AMC), and the caspase-like (Z-LLE-AMC)-activities of 20S proteasomes were determined following incubation for one hour at 37° C.
as §5, §6

Data set [8] has as its system caspase 3/7 activation in HeLa-cells. As to the kind of experiment: Apoptosis-assay, caspase 3/7-activity (Apo-One). Format: cell-based. As to conditions: 1 μM, 20 hours. As for the experimental part: HeLa-cells that were cultivated for 20 hours in the presence of the given inhibitor, were subsequently incubated for 2 hours with caspase-substrate (Apo-One; Promega). The activation of caspases 3/7 was measured at 538 nm (excitation at 485 nm). Treatment of the cells with TNFα or with MG132 served as control.
For this, 10,000 HeLa-cells pro well were seeded in a 96-well-plate, and co-cultivated for 20 hours with 1 μM of the inhibitors 7, 8, 11, 13-16, 18, 20-23 and 25-28. The induction of apoptosis was determined by measuring of the caspase 3/7-activity (Apo-One®-Assay, Promega).

Regarding `CC(C)C[C@@H](C=O)NC(=O)[C@H](CC(C)C)NC(=O)[C@H](CC(C)C)NC(=O)OCc1ccccc1` [Compound 3, reference compound] (Cbz-Leu-Leu-Leu-aldehyde), the IC50 is 500 to 1000 nM with Fibroblasts, 35 nM in data set [1], 9220 nM in data set [3] and 2290 nM in [4]. In addition, the “concentration giving arrest of the cell cycle in the G2 phase” value in data set [2] was determined as 100 nM.
Turning to `CC(C)C[C@@H](C=O)NC(=O)[C@H](CC(=O)OC(C)(C)C)NC(=O)[C@H](CC(C)C)NC(=O)OC(C)(C)C` [Compound 13] (Boc-Leu-Asp(OtBu)-Leu-aldehyde), in data set [5], the “reduction of the specific proteasomal activity in cells” value is listed as “markedly reduction”. Moreover, the “which proteasomal activities are inhibited (site selectivity)” value with 20S proteasome is “inhibited all of the proteasomal hydrolytic activities”. The results for the IC50 in [6] and in [4] were 102 nM and 98 nM, respectively.
In the case of `CC(C)C[C@@H](C=O)NC(=O)[C@H](CC(=O)O)NC(=O)[C@@H](N)CC(C)C` [Compound 14] (H-Leu-Asp-Leu-aldehyde), the IC50 in [7], in data set [3], in [6] and in data set [4] was more than 10000 nM each time.
Consider `CC(C)C[C@H](NC(=O)OCc1ccccc1)C(=O)N[C@@H](CC(C)C)C(=O)N[C@@H](CC(C)C)C(O)C#Cc1ccccc1` (stereo partly drawn) [Compound 21], for which the values for the IC50 in data set [7] and in data set [6] were 1300 nM and more than 10000 nM, respectively. Further, the “reduction of the specific proteasomal activity in cells” value in [5] is on record as “very weak inhibition”. The “which proteasomal activities are inhibited (site selectivity)” value in the data set with 20S proteasome was “exclusive reduction of the chymotryptic activity”.
Take `CC(C)C[C@H](NC(=O)OCc1ccccc1)C(=O)N[C@@H](CC(C)C)C(=O)N[C@@H](CC(C)C)C(=O)C(=O)NCc1ccccc1` [Compound 26]: the IC50 in data set [7] is 441 nM. In data set [5] (cultivated cells), the membrane-permeation entry was “membrane-permeation” and the “stability during the incubation periods” value is listed as “sufficient stability”. Also, the “proteasomal activity reduced to” value in data set [5] (cultivated cells, remaining activity) is listed as 10%. Moreover, the “which proteasomal activities are inhibited (site selectivity)” value with 20S proteasome was “inhibited the chymotryptic and the caspase-like sites”. For the same compound, the “induction of apoptosis (activation of caspase 3 and 7)” value in [8] is “beginning apoptosis; also recorded: strong induction of apoptosis”. Moreover, in [4], the IC50 is 1720 nM.
